From patent publication US10550105B2 (Ribon Therapeutics Inc., priority 2018, dated 2020)
Values belong to the compound of their own block, whether it stands above or below them.

Key:
[1] = test system: NCI-H1373 lung cancer cells; assay: Inhibition of cancer cell growth in NCI-H1373 lung cancer cells (FIG. 2); format: cell-based, human
interferon-beta (IFN-β) = assay: Induction of interferon-beta levels in RAW264.7 macrophages in the presence of STING agonist DMXAA (FIG. 3); format: cell-based; conditions: RAW264.7 mouse macrophages
PARP7 = PARP7 (Homo sapiens (Human), UniProt Q7Z3E1); assay: Inhibition of PARP7 (Table A-1); format: biochemical; conditions: comparison of separated isomers, see Table A-1
COLO-680N = assay: Growth inhibition of cancer cell lines, 72 hrs (CellTiter-Glo); format: cell-based; conditions: Homo sapiens, oesophagus, squamous cell carcinoma
Description: (§1) Example C: Inhibition of Cancer Cell Growth by Treatment with PARP7 Inhibitors
(§2) Table A-2 and Table A-3 (below) represents the concentration that causes 50% growth inhibition (GI50) in a panel of cancer cell lines with Compound 18B and Compound 561. Cells were plated into 384-well plates at a pre-specified density in fetal bovine serum-containing media. Cells were treated with compound or vehicle (DMSO) 24 hrs later, and a day zero plate was collected for analysis. Test compound plates were incubated continuously for 72 hrs (Table A-2) or 144 hours (Table A-3) cell growth was assessed using a luminescent cell viability assay (CellTiter-Glo, Promega). The GI50was determined by correcting for the cell count at time zero (time of treatment) and plotting data as percent growth relative to vehicle-treated cells.

EFE-184 = assay: as above; format: cell-based; conditions: Homo sapiens, endometrium, not specified
Description: as §1, §2

FaDu = assay: as above; format: cell-based; conditions: Homo sapiens, upper aerodigestive tract, squamous cell carcinoma
Description: as §1, §2

GSS = assay: as above; format: cell-based; conditions: stomach, adenocarcinoma
Description: as §1, §2

HCC-2279 = assay: as above; format: cell-based; conditions: lung, adenocarcinoma
Description: as §1, §2

HCC1187 = assay: as above; format: cell-based; conditions: Homo sapiens, breast, ductal carcinoma
Description: as §1, §2

HCC1937 = assay: as above; format: cell-based; conditions: Homo sapiens, breast, ductal carcinoma
Description: as §1, §2

IA-LM = assay: as above; format: cell-based; conditions: lung, large cell carcinoma
Description: as §1, §2

KMBC-2 = assay: as above; format: cell-based; conditions: urinary tract, not specified
Description: as §1, §2

KMRC-3 = assay: as above; format: cell-based; conditions: kidney, clear cell renal cell carcinoma
Description: as §1, §2

LS123 = assay: as above; format: cell-based; conditions: Homo sapiens, LS-123, large intestine, adenocarcinoma
Description: as §1, §2

NCI-H1373 = assay: as above; format: cell-based; conditions: Homo sapiens, lung, adenocarcinoma
Description: as §1, §2

NCI-H1437 = assay: as above; format: cell-based; conditions: Homo sapiens, lung, adenocarcinoma
Description: as §1, §2

NCI-H1930 = assay: as above; format: cell-based; conditions: Homo sapiens, lung, small cell carcinoma
Description: as §1, §2

NCI-H1975 = assay: as above; format: cell-based; conditions: Homo sapiens, lung, non small cell carcinoma
Description: as §1, §2

NCI-H2066 = assay: as above; format: cell-based; conditions: lung, small cell carcinoma
Description: as §1, §2

NCI-H596 = assay: as above; format: cell-based; conditions: Homo sapiens, lung, mixed adenosquamous carcinoma
Description: as §1, §2

SK-BR-3 = assay: as above; format: cell-based; conditions: Homo sapiens, breast, not specified
Description: as §1, §2

SNU-719 = assay: as above; format: cell-based; conditions: stomach, not specified
Description: as §1, §2

SW 900 = assay: as above; format: cell-based; conditions: Homo sapiens, SW900, lung, squamous cell carcinoma
Description: as §1, §2

SW620 = assay: as above; format: cell-based; conditions: Homo sapiens, SW-620, large intestine, adenocarcinoma
Description: as §1, §2

TUHR10TKB = assay: as above; format: cell-based; conditions: kidney, not specified
Description: as §1, §2

CT26 cells = assay: Proliferation of CT26 cells in the presence of PARP7 inhibitors (CellTiter-Glo, 4 days); format: cell-based, mouse; conditions: CellTiter-Glo (FIG. 5)
Description: Example F: Proliferation of CT26 cells in the presence of PARP7 inhibitors
CT26 cells were plated in a 384-well plate and allowed to adhere for several hours before being treated with Compound 18B. Cells were incubated with compound for 4 days prior to processing with CellTiter-Glo reagent (Promega). Luminescence was measured with a Perkin Elmer Envision and percent inhibition was calculated using the vehicle (DMSO) average as 0% inhibition. Non-linear regression analysis was performed using a 4 parameter (variable slope) fit in GraphPad Prism.

[2] = test system: CT26 colon cancer syngeneic model; assay: Tumor growth in the murine syngeneic model CT26 (FIG. 6A-C, 7B); format: in vivo, mouse; conditions: once or twice daily administration, FIG. 7B
[3] = test system: human NCI-H1373 lung cancer xenograft; assay: Tumor growth in human NCI-H1373 lung cancer xenograft (FIG. 7A); format: in vivo; conditions: once daily administration
[4] = test system: CT26 colon cancer syngeneic model; assay: Inhibition of tumor growth by oral dosing, murine CT26 colon cancer syngeneic model; format: in vivo; conditions: CT26 in BALB/c mice; BID 125-500 mg/kg or QD 500 mg/kg for 21 days; vs vehicle, P<0.0001 (FIG. 7B)
Description: Example H: Inhibition of Tumor Growth by Oral Dosing with a PARP7 Inhibitor
The effect of Compound 561 on tumor growth was studied in a human NCI-H1373 lung cancer xenograft and a murine CT26 colon cancer syngeneic model.
For the CT26 study, BALB/c mice were inoculated subcutaneously in the right flank with CT26 cells for tumor development. After 5 days of cell inoculation, mice with 36-79 mm^3 tumors were randomized into treatment groups with mean tumor volumes of 54 mm^3. The treatments were started from the next day post randomization (defined randomization day as day 0) and were treated with vehicle (25 or 50% Labrasol) or Compound 561 BID (2 times a day every 12 hours) at doses ranging from 125-500 mg/kg or QD (once a day) at 500 mg/kg for 21 days by oral gavage or needle subcutaneously. Tumor volumes were determined by manual calipers every 2-3 days. Mean tumor volume and SEM are plotted. BID: twice a day; PO: per oral administration; QD: once a day; SC: per subcutaneous administration. The first two doses for vehicle and Compound 561 500 mg/kg in the QD groups were delivered by subcutaneous injection. […] Statistical significance is calculated using two-way ANOVA followed by Bonferroni post-tests in which the treatment groups were compared to vehicle control (**** P<0.0001).

Sequence of PARP7 (Q7Z3E1 whole entry): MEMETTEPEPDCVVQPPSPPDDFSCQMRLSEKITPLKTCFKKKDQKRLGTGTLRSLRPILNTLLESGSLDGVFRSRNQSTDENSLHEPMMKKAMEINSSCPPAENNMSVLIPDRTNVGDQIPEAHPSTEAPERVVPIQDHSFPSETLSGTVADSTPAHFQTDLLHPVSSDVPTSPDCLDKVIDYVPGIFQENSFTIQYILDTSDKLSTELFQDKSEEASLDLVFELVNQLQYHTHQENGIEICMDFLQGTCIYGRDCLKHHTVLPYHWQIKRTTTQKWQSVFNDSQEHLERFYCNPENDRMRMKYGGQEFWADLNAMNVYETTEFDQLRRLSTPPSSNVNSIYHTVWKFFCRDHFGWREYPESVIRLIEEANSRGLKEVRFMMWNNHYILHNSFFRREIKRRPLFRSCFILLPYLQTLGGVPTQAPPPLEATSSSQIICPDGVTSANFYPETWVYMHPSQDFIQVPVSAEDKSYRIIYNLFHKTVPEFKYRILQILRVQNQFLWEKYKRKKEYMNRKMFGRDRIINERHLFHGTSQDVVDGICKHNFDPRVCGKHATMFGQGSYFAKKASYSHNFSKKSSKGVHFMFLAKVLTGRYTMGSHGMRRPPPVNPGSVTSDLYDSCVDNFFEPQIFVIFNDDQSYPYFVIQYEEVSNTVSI

relative potency of the enantiomers / diastereomers (PARP7): more potent enantiomer
GI50 (COLO-680N): < 100 nM
GI50 (EFE-184): < 100 nM
GI50 (FaDu): 100 to 1000 nM
GI50 (GSS): 100 to 1000 nM
GI50 (HCC-2279): 100 to 1000 nM
GI50 (HCC1187): 100 to 1000 nM
GI50 (HCC1937): < 100 nM
GI50 (IA-LM): < 100 nM
GI50 (KMBC-2): 100 to 1000 nM
GI50 (KMRC-3): 100 to 1000 nM
GI50 (LS123): 100 to 1000 nM
GI50 (NCI-H1373): < 100 nM
GI50 (NCI-H1437): < 100 nM
GI50 (NCI-H1930): < 100 nM
GI50 (NCI-H1975): 100 to 1000 nM
GI50 (NCI-H2066): 100 to 1000 nM
GI50 (NCI-H596): < 100 nM
GI50 (SK-BR-3): 100 to 1000 nM
GI50 (SNU-719): 100 to 1000 nM
GI50 (SW 900): < 100 nM
GI50 (SW620): 100 to 1000 nM
GI50 (TUHR10TKB): < 100 nM
Compound: N#Cc1ccc(N2CCN(C(=O)c3cccc(OC[C@@H]4c5ccccc5CN4c4cn[nH]c(=O)c4C(F)(F)F)c3)CC2)nc1 (single isomer, unassigned) [Example 18 Isomer B]
growth of NCI-H1373 lung cancer cells [1]: dose-dependent decrease in growth
interferon-beta (IFN-β) levels (interferon-beta (IFN-β)): induction
proliferation in CT26 cells in vitro (CT26 cells): do not inhibit proliferation

Compound: C[C@@H](COCCC(=O)N1CCN(c2ncc(C(F)(F)F)cn2)CC1)Nc1cn[nH]c(=O)c1C(F)(F)F [Example 561, 5-[[(2S)-1-(3-oxo-3-[4-[5-(trifluoromethyl)pyrimidin-2-yl]piperazin-1-yl]propoxy)propan-2-yl]amino]-4-(trifluoromethyl)-2,3-dihydropyridazin-3-one]
tumor growth [2]: significantly reduces tumor growth
tumor growth [3]: significantly reduces tumor growth
tumor growth [4]: significantly reduces tumor growth
